The values below come from ChEMBL document CHEMBL5244255, “An insight on medicinal attributes of 1,2,4-triazoles” (Eur J Med Chem, 2020).

The subject of data set [1] is Rattus norvegicus. As to the kind of experiment: Antiinflammatory activity in rat assessed as reduction in edema at 5 to 20 mg/kg, po measured after 5 hrs relative to control. In kind it is functional. Further details: scale not given: the % may be the effect or the level left. The following applies: dose 5-20 mg/kg.
Data set [2] deals with Middle East respiratory syndrome-related coronavirus. As to the kind of experiment: Antiviral activity of Middle East respiratory syndrome coronavirus. Format: functional, organism-based.
The subject of a further data set is Leishmania infantum. Briefly: Antileishmanial activity against Leishmania infantum measured after 20 mins. In kind it is functional.
The test system of another data set is HepG2. As to the kind of experiment: Antiproliferative activity against human HepG2 cells assessed as cell viability incubated for 72 hrs by MTT assay. Format: functional, cell-based. To be noted: HepG2, 72 h. On the technique in general: Tetrazolium dyes change colour on reduction, which living cells bring about.
Data set [3] is described as follows: Inhibition of Plasmodium falciparum dihydrofolate reductase.
Another data set relates to Human alphaherpesvirus 1. Briefly: Antiviral activity against Human alphaherpesvirus 1 infected in African green monkey Vero kidney cells assessed as plaque reduction at 80 uM relative to control. In kind it is functional. Also on record: scale not given: the % may be the effect or the level left.
For data set [4], the target named is T1, Vascular endothelial growth factor receptor 2 (Homo sapiens, UniProt P35968). As to the kind of experiment: Inhibition of human VEGFR2 using biotinylated poly-GluTyr as substrate at 117 ng/ml incubated for 24 hrs in presence of ATP by ELISA assay relative to control. In general terms: An ELISA detects its analyte on a solid surface through an enzyme-linked reagent.

The test system of data set [5] is MCF7. As to the kind of experiment: Anticancer activity against human MCF7 cells assessed a cell growth inhibition incubated for 48 hrs by SRB assay. Format: functional, cell-based. To be noted: MCF7, 48 h. (In general: The SRB assay estimates cell density from bound dye.)
Data set [6] deals with Japanese encephalitis virus. Briefly: Antiviral activity against Japanese encephalitis virus. To be noted: read-out: ED50 (the source's name). Format: functional.
A further data set concerns LNCaP. Briefly: Anticancer activity against human LNCaP cells assessed as cell growth inhibition incubated for 24 hrs by MTS assay. In kind it is functional, cell-based.
The test system of data set [7] is DU-145. As to the kind of experiment: Anticancer activity against human DU-145 cells assessed as cell growth inhibition incubated for 24 hrs by MTS assay. In kind it is functional, cell-based. The following applies: DU-145, 24 h.
The test system of data set [8] is PC-3. Briefly: Anticancer activity against human PC-3 cells assessed as cell growth inhibition incubated for 24 hrs by MTS assay. In kind it is functional, cell-based. To be noted: PC-3, 24 h.
The species named for data set [9] is Mus musculus. As to the kind of experiment: Antiseizure activity against ScPTZ-induced seizure in mouse. In kind it is functional. The following applies: route sc.
For data set [10], the species on record is Mus musculus. Briefly: Anticonvulsant activity in mouse assessed as MES-induced seizures measured after 30 mins. In kind it is functional. The following applies: 0.5 h.
Data set [11] deals with PC-3. Briefly: Anticancer activity against human PC-3 cells assessed as cell growth inhibition. Format: functional, cell-based.
In data set [12] the test system is MCF7. As to the kind of experiment: Antiproliferative activity against human MCF7 cells assessed as cell viability incubated for 48 hrs by MTT assay. The following applies: MCF7, 48 h. Format: functional, cell-based.
Data set [13] concerns DU-145. As to the kind of experiment: Anticancer activity against human DU-145 cells assessed as cell growth inhibition incubated for 48 hrs by MTT assay. In kind it is functional, cell-based. To be noted: DU-145, 48 h.
Another data set concerns A549. Briefly: Anticancer activity against human A549 cells assessed as cell growth inhibition incubated for 48 hrs by MTT assay. In kind it is functional, cell-based. The following applies: A549, 48 h.
The next data set deals with HeLa. As to the kind of experiment: Antiproliferative activity against human HeLa cells assessed as cell growth inhibition by MTT assay. Format: functional, cell-based.
In data set [14] the test system is BT-20. As to the kind of experiment: Potency index, ratio of test compound IC50 to cisplatin IC50 for antiproliferative against human BT-20 cells. Format: functional.
The test system of data set [15] is BT-20. As to the kind of experiment: Anticancer activity against human BT-20 cells assessed as cell growth inhibition incubated for 48 hrs by MTT assay. In kind it is functional, cell-based. To be noted: BT-20, 48 h.
Data set [16] in a line: Anticancer activity against human SK-MEL-128 cells assessed as cell growth inhibition incubated for 48 hrs by MTT assay. In kind it is functional, cell-based. To be noted: SK-MEL-128, 48 h.
The test system of another data set is SMMC-7721. As to the kind of experiment: Anticancer activity against human SMMC-7721 cells assessed as cell growth inhibition incubated for 48 hrs by CCK8 assay. Format: functional, cell-based. To be noted: SMMC-7721, 48 h.
The target of data set [17] is T1, Vascular endothelial growth factor receptor 2. Briefly: Inhibition of human VEGFR2 (unknown origin) incubated for 1 hrs in presence of ATP by ELISA assay.
The target in data set [18] is Hepatocyte growth factor receptor (Homo sapiens, UniProt P08581). As to the kind of experiment: Inhibition of c-Met (unknown origin) incubated for 1 hrs in presence of ATP by ELISA assay.
For data set [19], the system named is Mus musculus. Briefly: Anticonvulsant activity in ip dosed mouse assessed as protection against PTZ-induced seizure. Format: functional.
Data set [20] is described as follows: Protection index, ratio of TD50 for neurotoxicity in ip dosed mouse to ED50 for anticonvulsant activity in ip dosed mouse. In kind it is toxicity, organism-based. To be noted: in vivo, read-out: Ratio TD50/ED50.
For data set [21], the system named is Mus musculus. Briefly: Anticonvulsant activity in ip dosed mouse assessed as MES-induced seizures. Format: functional.
Data set [22] concerns Rattus norvegicus. As to the kind of experiment: Antiinflammatory activity in rat assessed as reduction in xylene induced edema at 10 mg/kg, po by CPE test relative to control. Format: functional. Further details: scale not given: the % may be the effect or the level left.
Data set [23] concerns Cytomegalovirus. As to the kind of experiment: Antiviral activity against Cytomegalovirus infected in HFF cells […]. To be noted: Human betaherpesvirus 5, HFF. Format: functional, organism-based.
Data set [24] deals with Cytomegalovirus. As to the kind of experiment: Potency index, ratio of ganciclovir IC50 to test compound IC50 for antiviral activity against Cytomegalovirus. Format: functional.
The test system of another data set is A498. Briefly: Anticancer activity against human A498 cells assessed as cell growth inhibition incubated for 48 hrs by SRB assay. In kind it is functional.
The next data set concerns HOP-92. Briefly: Anticancer activity against human HOP-92 cells assessed as cell growth inhibition incubated for 48 hrs by SRB assay. In kind it is functional.
The subject of a further data set is U-251. Briefly: Anticancer activity against human U-251 cells assessed as cell growth inhibition incubated for 48 hrs by SRB assay. In kind it is functional.
Another data set has as its system NCI-H460. As to the kind of experiment: Anticancer activity against human NCI-H460 cells assessed as cell growth inhibition incubated for 48 hrs by SRB assay. In kind it is functional.
Another data set relates to HCT-116. Briefly: Anticancer activity against human HCT-116 cells assessed as cell growth inhibition incubated for 48 hrs by SRB assay. In kind it is functional.
The next data set relates to LOX IMVI. Briefly: Anticancer activity against human LOX IMVI cells assessed as cell growth inhibition incubated for 48 hrs by SRB assay. In kind it is functional.

In brackets after ≈: the same amount, converted by molar mass. Where only a bound is given, the exact number is not on record here.

T1 sequence (P35968 whole entry): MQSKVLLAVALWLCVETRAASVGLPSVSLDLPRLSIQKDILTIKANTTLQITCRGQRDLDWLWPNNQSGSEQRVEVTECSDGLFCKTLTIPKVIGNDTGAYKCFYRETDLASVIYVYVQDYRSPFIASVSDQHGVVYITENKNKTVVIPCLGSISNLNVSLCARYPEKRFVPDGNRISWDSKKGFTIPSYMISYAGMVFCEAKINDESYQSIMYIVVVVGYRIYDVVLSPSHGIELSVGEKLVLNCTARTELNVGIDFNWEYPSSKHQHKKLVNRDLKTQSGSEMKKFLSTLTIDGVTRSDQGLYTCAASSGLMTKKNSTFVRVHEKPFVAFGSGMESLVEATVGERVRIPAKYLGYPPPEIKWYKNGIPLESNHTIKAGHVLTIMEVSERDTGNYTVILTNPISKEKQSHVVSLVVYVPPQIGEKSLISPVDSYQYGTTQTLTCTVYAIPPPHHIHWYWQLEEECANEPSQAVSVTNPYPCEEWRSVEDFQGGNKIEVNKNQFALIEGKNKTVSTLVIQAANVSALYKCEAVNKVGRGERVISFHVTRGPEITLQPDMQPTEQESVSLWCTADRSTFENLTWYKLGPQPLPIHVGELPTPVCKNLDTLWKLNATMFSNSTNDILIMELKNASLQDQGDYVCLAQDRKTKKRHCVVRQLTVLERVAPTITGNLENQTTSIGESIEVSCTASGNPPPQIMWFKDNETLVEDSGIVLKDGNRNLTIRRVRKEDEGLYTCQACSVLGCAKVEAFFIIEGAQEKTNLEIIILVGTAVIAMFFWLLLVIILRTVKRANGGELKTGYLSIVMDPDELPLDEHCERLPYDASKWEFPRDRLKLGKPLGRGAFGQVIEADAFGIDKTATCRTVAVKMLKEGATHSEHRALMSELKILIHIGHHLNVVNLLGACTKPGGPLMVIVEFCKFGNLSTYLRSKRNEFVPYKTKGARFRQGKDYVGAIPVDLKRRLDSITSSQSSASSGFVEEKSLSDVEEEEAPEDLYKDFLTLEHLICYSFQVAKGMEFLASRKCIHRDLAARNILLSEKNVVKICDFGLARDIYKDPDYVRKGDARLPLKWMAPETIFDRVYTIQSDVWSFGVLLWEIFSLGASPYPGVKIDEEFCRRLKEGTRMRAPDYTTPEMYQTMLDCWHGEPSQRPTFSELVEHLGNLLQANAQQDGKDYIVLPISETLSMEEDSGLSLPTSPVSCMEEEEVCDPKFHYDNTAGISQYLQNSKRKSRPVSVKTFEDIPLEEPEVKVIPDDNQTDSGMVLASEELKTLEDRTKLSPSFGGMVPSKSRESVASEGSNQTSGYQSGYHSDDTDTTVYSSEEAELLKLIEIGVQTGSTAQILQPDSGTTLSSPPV
Hepatocyte growth factor receptor, sequence (P08581 whole entry): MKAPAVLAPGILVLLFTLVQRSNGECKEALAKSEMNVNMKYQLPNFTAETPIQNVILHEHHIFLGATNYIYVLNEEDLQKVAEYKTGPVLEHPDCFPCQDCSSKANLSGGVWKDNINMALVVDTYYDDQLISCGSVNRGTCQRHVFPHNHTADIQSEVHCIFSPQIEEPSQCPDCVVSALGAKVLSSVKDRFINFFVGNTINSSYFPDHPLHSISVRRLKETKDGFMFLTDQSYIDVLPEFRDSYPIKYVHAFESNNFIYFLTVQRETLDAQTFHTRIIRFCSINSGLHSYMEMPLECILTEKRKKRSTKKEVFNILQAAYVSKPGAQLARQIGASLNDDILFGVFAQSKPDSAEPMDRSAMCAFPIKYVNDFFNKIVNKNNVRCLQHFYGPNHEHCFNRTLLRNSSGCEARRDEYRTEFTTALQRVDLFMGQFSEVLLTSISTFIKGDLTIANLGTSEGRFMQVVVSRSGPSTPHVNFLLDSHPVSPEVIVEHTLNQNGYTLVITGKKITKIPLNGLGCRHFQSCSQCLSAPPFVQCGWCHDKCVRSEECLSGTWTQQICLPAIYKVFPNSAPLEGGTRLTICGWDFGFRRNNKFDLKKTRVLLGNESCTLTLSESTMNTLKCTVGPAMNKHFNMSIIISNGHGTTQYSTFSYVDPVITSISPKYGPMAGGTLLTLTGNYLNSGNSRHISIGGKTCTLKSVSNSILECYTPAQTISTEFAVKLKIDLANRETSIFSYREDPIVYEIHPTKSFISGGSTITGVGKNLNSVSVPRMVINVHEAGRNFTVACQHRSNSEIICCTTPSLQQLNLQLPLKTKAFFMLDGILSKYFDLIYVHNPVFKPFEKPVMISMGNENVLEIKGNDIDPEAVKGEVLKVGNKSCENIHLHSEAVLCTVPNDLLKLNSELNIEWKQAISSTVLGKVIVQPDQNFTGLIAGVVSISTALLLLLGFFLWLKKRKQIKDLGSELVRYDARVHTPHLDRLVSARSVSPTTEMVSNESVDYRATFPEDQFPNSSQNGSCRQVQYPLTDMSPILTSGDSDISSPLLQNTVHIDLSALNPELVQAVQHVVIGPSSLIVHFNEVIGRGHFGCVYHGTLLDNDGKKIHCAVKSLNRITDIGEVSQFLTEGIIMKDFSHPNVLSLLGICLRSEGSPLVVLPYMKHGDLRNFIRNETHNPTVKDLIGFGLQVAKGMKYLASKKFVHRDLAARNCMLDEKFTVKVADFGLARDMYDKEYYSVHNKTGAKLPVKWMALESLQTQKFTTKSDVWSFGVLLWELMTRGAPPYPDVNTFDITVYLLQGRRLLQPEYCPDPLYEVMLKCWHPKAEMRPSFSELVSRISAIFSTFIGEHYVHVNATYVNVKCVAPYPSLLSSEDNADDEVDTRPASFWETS

With `O=C(CSc1nncn1CC(=O)N/N=C/c1ccc(O)cc1)N/N=C/c1ccc(O)cc1`, in the data set on Rattus norvegicus [1], the Activity came to 64.44%.
As a reminder, the IC50 is the point on the concentration scale where inhibition reaches its midpoint. With `Sc1nnc(NNc2ccc(Cl)cc2)n1NC1C=CCC1` (stereo not drawn), the half-maximal inhibitory concentration (IC50) in data set [2] amounted to 510 nM.
As usually defined, the MIC is the least concentration at which growth counts as inhibited. With `Nn1c(S)nnc1Cn1nc(Cc2cccs2)n(N)c1=O`, in the data set with Leishmania infantum, inhibition of growth (MIC) required 625 µg/mL (≈ 1930 µM).
For `CCc1nnc2c(Nc3ccc(C(=O)/C=C/c4cc(OC)c(OC)c(OC)c4)cc3)nc3ccccc3n12`, the half-maximal inhibitory concentration (IC50) in the data set with HepG2 turned out to be 8.58 µM.
Regarding `Sc1nnc(NNc2ccc(I)cc2)n1NC1C=CCC1` (stereo not drawn), the IC50 in data set [2] amounted to 470 nM.
The compound `CC1=C(C(=O)Nc2ccc(Br)cn2)C(c2cn(-c3ccccc3)nc2-c2ccc(Cl)cc2)n2ncnc2N1` (stereo not drawn) yielded an IC50 in data set [3] of 0.023 µg/mL (≈ 0.0391 µM).
In the case of `CCOC(=O)CSc1nc2n(n1)C(=O)C(CCCl)C(C)N2` (stereo not drawn), the Activity with Human alphaherpesvirus 1 was 50%.
Broadly, the inhibition is how much of the control response was suppressed. As to `O=c1nc2c3c(ncn2[nH]1)Oc1c(c(=O)oc2ccccc12)C3c1ccc(F)cc1` (stereo not drawn), the inhibition in data set [4] amounted to 94%. Inhibition with MCF7 [5] was half-maximal at 7.9 µg/mL (≈ 19.6 µM) (IC50).
Turning to `CN1C(=O)c2ccccc2N(c2cccc(-c3nnc4n3NC(c3ccccc3)=C(c3ccccc3)S4)c2)C1c1ccccc1` (stereo not drawn), the EC50 in [6] amounted to 7.8 µg/mL (≈ 12.9 µM).
In the case of `COc1ccc2cc(C(C)c3nnc(SCC(=O)N/N=C/c4cc([N+](=O)[O-])ccc4-c4ccco4)n3-c3ccc(F)cc3)ccc2c1` (stereo not drawn), the IC50 in the data set with LNCaP turned out to be 48.8 µM; in the data set with DU-145 [7], 34.5 µM; in the data set with PC-3 [8] it was 26 µM.
A word on the ED50: it is the dose at which the effect has come halfway, by size or by number of responders. For the compound `O=C(CSc1nc[nH]n1)Nc1nc2ccc(OCc3ccc(F)cc3)cc2s1`, the ED50 in the data set filed under Mus musculus [9] came to 52.8 mg/kg; in the data set filed under Mus musculus [10], 54.8 mg/kg.
Turning to `O=C(CSc1nnc2n(Cc3ccccc3)c(=O)c3c4c(sc3n12)CCCC4)N1CCN(c2ccccc2)CC1`, the 50% inhibitory concentration (IC50) in the data set with PC-3 [11] amounted to 5.48 µM.
Turning to `O=C(O)c1ccc(-n2nc(Oc3ccccc3)nc2NC(=S)NC(=O)c2ccccc2)cc1`, in the data set with MCF7 [12], the IC50 is 23.9 µM.
On to `CCN(CC)c1ccc2cc(C(=O)NNC(=O)Cn3nc(Cc4cccc(Br)c4)n(N)c3=O)c(=O)oc2c1`, for which the IC50 with DU-145 [13] turned out to be 3.1 µg/mL (≈ 5.3 µM); in the data set on A549 it was 3.1 µg/mL (≈ 5.3 µM); in the data set on HeLa, 0.16 µg/mL (≈ 0.274 µM); with BT-20 [15] it was 3.1 µg/mL (≈ 5.3 µM); in data set [16], 3.1 µg/mL (≈ 5.3 µM). Also, in the data set on BT-20 [14], the “Ratio IC50” value is 2.7.
With `CC(C)SSc1nnc(-c2ccccc2)n1N`, the half-maximal inhibitory concentration (IC50) in the data set with SMMC-7721 is 2970 nM.
Take `Cc1c(C(=O)Nc2ccc(Oc3ccnc(-c4nncn4CN4CCN(C)CC4)c3)c(F)c2)c(=O)n(-c2ccccc2)n1C`: the concentration for half-maximal inhibition (IC50) in data set [17] came to 190 nM; in data set [18] it was 110 nM.
Consider `Fc1ccc(-c2csc3nncn23)cc1`, for which the ED50 with Mus musculus [19] and in the data set with Mus musculus [21] was 49.1 mg/kg each time. The selectivity ratio in data set [20] was found to be 1.7.
Regarding `Fc1cc(F)cc(-c2nn3c(CN4c5ccccc5Sc5ccccc54)nnc3s2)c1`, the Activity in the data set on Rattus norvegicus [22] came to 82.24%.
`Nc1nc2c(ncn2COC(CO)CO)c(=O)[nH]1` [GANCICLOVIR] displayed a half-maximal inhibitory concentration (IC50) in the data set with Cytomegalovirus [23] of 590 nM. For the same compound, in the data set on Cytomegalovirus [24], the “Ratio IC50” value is on record as above 256.
As a reminder, the GI50 is the concentration that inhibits growth by half. On to `Clc1ccccc1-c1nnc2c(Cc3ccccc3)nc3ccccc3n12`, for which the GI50 was 1800 nM in the data set on A498; 3.91 µM in the data set on HOP-92; 1960 nM in the data set with U-251; 3.45 µM with NCI-H460; 3.49 µM with HCT-116; 5.18 µM in the data set on LOX IMVI.
